Experimental data: PubChem BioAssay AID1963872 (Molecular Pharmacology Branch, DTP, NCI, 2024)
pIC50: −log10 of the molar value.

Tested on: KRAS patient-derived spheroids with HUVEC/MSC, viability
Test: Anticancer human tumor 519858-162-T-J1-PDC patient-derived colon adenocarcinoma cell line growth inhibition [KRAS2]
Details: for pIC50: curve of first compound; for viability, T/C: stronger effect = lower value
In short: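 Combination screen of spheroid viability in tumor-cell co-cultures with endothelial (HUVEC) and mesenchymal stem cell stroma. Each agent was tested in half-log dilutions, topping at clinical Cmax or at 10 microM without a known Cmax.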

[1] = second compound 0.1 µM, first compound 0.0316 µM
[2] = second compound 0.1 µM, first compound 0.1 µM
[3] = second compound 0.1 µM, first compound 0.316 µM
[4] = second compound 0.1 µM, first compound 1 µM
[5] = second compound 0.1 µM, first compound 3.16 µM
[6] = second compound 0.316 µM, first compound 0.0316 µM
[7] = second compound 0.316 µM, first compound 0.1 µM
[8] = second compound 0.316 µM, first compound 0.316 µM
[9] = second compound 0.316 µM, first compound 1 µM
[10] = second compound 0.316 µM, first compound 3.16 µM
[11] = second compound 1 µM, first compound 0.0316 µM
[12] = second compound 1 µM, first compound 0.1 µM
[13] = second compound 1 µM, first compound 0.316 µM
[14] = second compound 1 µM, first compound 1 µM
[15] = second compound 1 µM, first compound 3.16 µM
[16] = second compound 3.16 µM, first compound 0.0316 µM
[17] = second compound 3.16 µM, first compound 0.1 µM
[18] = second compound 3.16 µM, first compound 0.316 µM
[19] = second compound 3.16 µM, first compound 1 µM
[20] = second compound 3.16 µM, first compound 3.16 µM
[21] = second compound 0.1 µM, first compound 10 µM
[22] = second compound 0.316 µM, first compound 10 µM
[23] = second compound 1 µM, first compound 10 µM
[24] = second compound 3.16 µM, first compound 10 µM
[25] = second compound 10 µM, first compound 0.0316 µM
[26] = second compound 10 µM, first compound 0.1 µM
[27] = second compound 10 µM, first compound 0.316 µM
[28] = second compound 10 µM, first compound 1 µM
[29] = second compound 10 µM, first compound 3.16 µM
[30] = second compound 10 µM, first compound 10 µM
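Also: compound exposure lasted seven days before readout.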
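For viability, T/C in this document: 100% = DMSO vehicle control viability.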

Row | SMILES | pIC50 (second compound 0.1 µM) | pIC50 (second compound 0.316 µM) | pIC50 (second compound 1 µM) | pIC50 (second compound 3.16 µM) | viability, T/C [1] [%] | viability, T/C [2] [%] | viability, T/C [3] [%] | viability, T/C [4] [%] | viability, T/C [5] [%] | viability, T/C [6] [%] | viability, T/C [7] [%] | viability, T/C [8] [%] | viability, T/C [9] [%] | viability, T/C [10] [%] | viability, T/C [11] [%] | viability, T/C [12] [%] | viability, T/C [13] [%] | viability, T/C [14] [%] | viability, T/C [15] [%] | viability, T/C [16] [%] | further results
1 | CC(=O)OC12COC1CC(O)C1(C)C(=O)C(O)C3=C(C)C(OC(=O)C(O)C(NC(=O)OC(C)(C)C)c4ccccc4)CC(O)(C(OC(=O)c4ccccc4)C21)C3(C)C (stereo not given) + C=CC(=O)N1CCN(c2nc(OCC3CCCN3C)nc3c2CCN(c2cccc4cccc(C)c24)C3)CC1CC#N | < 5.50 | < 5.50 | < 5.50 | < 5.50 | 91.2 | 68.5 | 69.4 | 62.4 | 75.1 | 64.6 | 86.9 | 75 | 58.7 | 70.7 | 84.1 | 74.4 | 73.2 | 47.1 | 74 | 80.1 | pIC50 (second compound 0.0316 µM): < 5.50; viability, T/C (second compound 0.0316 µM, first compound 0.01 µM): 107%; viability, T/C (second compound 0.0316 µM, first compound 0.0316 µM): 86%; viability, T/C (second compound 0.0316 µM, first compound 0.1 µM): 92.1%; viability, T/C (second compound 0.0316 µM, first compound 0.316 µM): 85.1%; viability, T/C (second compound 0.0316 µM, first compound 1 µM): 70%; viability, T/C (second compound 0.0316 µM, first compound 3.16 µM): 68.5%; viability, T/C (second compound 0.1 µM, first compound 0.01 µM): 83%; viability, T/C (second compound 0.316 µM, first compound 0.01 µM): 67.5%; viability, T/C (second compound 1 µM, first compound 0.01 µM): 54.5%; viability, T/C (second compound 3.16 µM, first compound 0.01 µM): 94.1%; viability, T/C [17]: 98.4%; viability, T/C [18]: 75.1%; viability, T/C [19]: 71.5%; viability, T/C [20]: 75.4%
2 | CC1(C)CCC(CN2CCN(c3ccc(C(=O)NS(=O)(=O)c4ccc(NCC5CCOCC5)c([N+](=O)[O-])c4)c(Oc4cnc5[nH]ccc5c4)c3)CC2)=C(c2ccc(Cl)cc2)C1 + CNCc1ccccc1-c1csc(C(C)Nc2nc(C)nc3cc(OC)c(OC)cc23)c1 | < 5.00 | < 5.00 | 5.54 | 7.50 | 69.5 | 86.8 | 92.7 | 68 | 69.9 | 67.5 | 78.4 | 78.4 | 80.8 | 68.3 | 74 | 78.9 | 84.5 | 101 | 46.8 | 38.8 | pIC50 (second compound 10 µM): > 7.50; viability, T/C [21]: 60.4%; viability, T/C [22]: 60.1%; viability, T/C [23]: 27.6%; viability, T/C [17]: 45.8%; viability, T/C [18]: 48.2%; viability, T/C [19]: 67%; viability, T/C [20]: 41.7%; viability, T/C [24]: 15.5%; viability, T/C [25]: 0.32%; viability, T/C [26]: 0.34%; viability, T/C [27]: 0.37%; viability, T/C [28]: 0.27%; viability, T/C [29]: 0.28%; viability, T/C [30]: 0.35%
3 | CC(C)NCC(C(=O)N1CCN(c2ncnc3c2C(C)CC3O)CC1)c1ccc(Cl)cc1 (stereo not given) + C=CC(=O)N1CCN(c2nc(=O)n(-c3c(C)ccnc3C(C)C)c3nc(-c4c(O)cccc4F)c(F)cc23)C(C)C1 | < 5.00 | < 5.00 | < 5.00 | < 5.00 | 95.1 | 103 | 65.2 | 69 | 111 | 95.3 | 83.3 | 86.5 | 91.9 | 99.1 | 68.7 | 105 | 96.9 | 102 | 77.8 | 92.8 | pIC50 (second compound 10 µM): < 5.00; viability, T/C [21]: 93.2%; viability, T/C [22]: 119%; viability, T/C [23]: 72.7%; viability, T/C [17]: 90.3%; viability, T/C [18]: 87.5%; viability, T/C [19]: 67%; viability, T/C [20]: 82.7%; viability, T/C [24]: 87.5%; viability, T/C [25]: 85.9%; viability, T/C [26]: 73.8%; viability, T/C [27]: 64.1%; viability, T/C [28]: 73.9%; viability, T/C [29]: 90.8%; viability, T/C [30]: 75%
